Results reported in the supplement of paper PMC10627819.

Assays:
S. aureus Newman [1] = assay: fitness (endpoint OD595 vs no drug) (fraction); higher = more growth
In short: (§1)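 At 37 °C, bacteria in TSB, LB Lennox or CY were grown in 384-well plates from a starting OD595 of 0.01. OD595 was measured every 30 min for 14 h, with the first reading used as background. Fitness is the optical density at the switch to stationary phase as a fraction of the robust mean of no-drug control wells, capped at 1.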

B. subtilis 168 [2] = assay: as above
In short: as §1

S. aureus DSM 20231 [3] = assay: as above
In short: as §1

S. pneumoniae D39V [4] = assay: as above
In short: as §1

S. aureus Newman [5] = assay: Bliss interaction score (quartile over a dose matrix) (fitness difference); higher = more antagonism (negative = synergy)
In short: (§2)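 Fitness was derived from optical density at entry into stationary phase, divided by the robust mean of the no-drug wells on the same plate. That reading was taken as OD595, and the ratio was capped at 1. Single-drug fitness was inferred from the combination data. The Bliss score, observed fitness minus the expected product of single-drug fitness, was summarised as quartiles over technical, biological and donor/recipient replicates.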

B. subtilis 168 [6] = assay: as above
In short: as §2

S. aureus DSM 20231 [7] = assay: as above
In short: as §2

S. pneumoniae D39V [8] = assay: as above
In short: as §2
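Throughout, for Bliss interaction score (quartile over a dose matrix): first quartile when negative (synergy) and third quartile when positive (antagonism).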

Cc1onc(-c2ccccc2)c1C(=O)N[C@@H]1C(=O)N2[C@@H]1SC(C)(C)[C@@H]2C(=O)O [Oxacillin] + CC1=C\[C@@H](O)CC(=O)Cc2nc(co2)C(=O)N2CCC=C2C(=O)O[C@H](C(C)C)[C@H](C)/C=C/C(=O)NC\C=C\1 [Virginiamycin M1]
Conditions	fitness
B. subtilis 168 [2], first compound 0.002 µg/mL, partner 0.0625 µg/mL	0.993
B. subtilis 168 [2], first compound 0.002 µg/mL, partner 0.125 µg/mL	0.954
B. subtilis 168 [2], first compound 0.002 µg/mL, partner 0.25 µg/mL	0.977
B. subtilis 168 [2], first compound 0.004 µg/mL, partner 0.0625 µg/mL	0.98
B. subtilis 168 [2], first compound 0.004 µg/mL, partner 0.125 µg/mL	0.941
B. subtilis 168 [2], first compound 0.004 µg/mL, partner 0.25 µg/mL	0.973
B. subtilis 168 [2], first compound 0.008 µg/mL, partner 0.0625 µg/mL	0.962
B. subtilis 168 [2], first compound 0.008 µg/mL, partner 0.125 µg/mL	0.905
B. subtilis 168 [2], first compound 0.008 µg/mL, partner 0.25 µg/mL	0.962
S. aureus DSM 20231 [3], first compound 0.0156 µg/mL, partner 0.0625 µg/mL	0.803
S. aureus DSM 20231 [3], first compound 0.0156 µg/mL, partner 0.125 µg/mL	0.808
S. aureus DSM 20231 [3], first compound 0.0156 µg/mL, partner 0.25 µg/mL	0.775
S. aureus DSM 20231 [3], first compound 0.0312 µg/mL, partner 0.0625 µg/mL	0.61
S. aureus DSM 20231 [3], first compound 0.0312 µg/mL, partner 0.125 µg/mL	0.686
S. aureus DSM 20231 [3], first compound 0.0312 µg/mL, partner 0.25 µg/mL	0.628
S. aureus DSM 20231 [3], first compound 0.0625 µg/mL, partner 0.0625 µg/mL	0.492
S. aureus DSM 20231 [3], first compound 0.0625 µg/mL, partner 0.125 µg/mL	0.514
S. aureus DSM 20231 [3], first compound 0.0625 µg/mL, partner 0.25 µg/mL	0.545
S. aureus Newman [1], first compound 0.0156 µg/mL, partner 0.0625 µg/mL	0.755
S. aureus Newman [1], first compound 0.0156 µg/mL, partner 0.125 µg/mL	0.761
S. aureus Newman [1], first compound 0.0156 µg/mL, partner 0.25 µg/mL	0.763
S. aureus Newman [1], first compound 0.0312 µg/mL, partner 0.0625 µg/mL	0.71
S. aureus Newman [1], first compound 0.0312 µg/mL, partner 0.125 µg/mL	0.709
S. aureus Newman [1], first compound 0.0312 µg/mL, partner 0.25 µg/mL	0.694
S. aureus Newman [1], first compound 0.0625 µg/mL, partner 0.0625 µg/mL	0.622
S. aureus Newman [1], first compound 0.0625 µg/mL, partner 0.125 µg/mL	0.623
S. aureus Newman [1], first compound 0.0625 µg/mL, partner 0.25 µg/mL	0.643
S. pneumoniae D39V [4], first compound 0.01 µg/mL, partner 0.5 µg/mL	0.986
S. pneumoniae D39V [4], first compound 0.01 µg/mL, partner 1 µg/mL	0.98
S. pneumoniae D39V [4], first compound 0.01 µg/mL, partner 2 µg/mL	0.961
S. pneumoniae D39V [4], first compound 0.02 µg/mL, partner 0.5 µg/mL	0.964
S. pneumoniae D39V [4], first compound 0.02 µg/mL, partner 1 µg/mL	0.965
S. pneumoniae D39V [4], first compound 0.02 µg/mL, partner 2 µg/mL	0.913
S. pneumoniae D39V [4], first compound 0.04 µg/mL, partner 0.5 µg/mL	0.539
S. pneumoniae D39V [4], first compound 0.04 µg/mL, partner 1 µg/mL	0.568

one replicate
Conditions	fitness
B. subtilis 168 [2], first compound 0.075 µg/mL, partner 0.0625 µg/mL	0.461
B. subtilis 168 [2], first compound 0.075 µg/mL, partner 0.125 µg/mL	0.639
B. subtilis 168 [2], first compound 0.075 µg/mL, partner 0.25 µg/mL	0.53
B. subtilis 168 [2], first compound 0.15 µg/mL, partner 0.0625 µg/mL	0.0434
B. subtilis 168 [2], first compound 0.15 µg/mL, partner 0.125 µg/mL	0.0511
B. subtilis 168 [2], first compound 0.15 µg/mL, partner 0.25 µg/mL	0.0511
B. subtilis 168 [2], first compound 0.3 µg/mL, partner 0.0625 µg/mL	0.04
B. subtilis 168 [2], first compound 0.3 µg/mL, partner 0.125 µg/mL	0.0604
B. subtilis 168 [2], first compound 0.3 µg/mL, partner 0.25 µg/mL	0.0635
S. aureus DSM 20231 [3], first compound 0.0156 µg/mL, partner 0.5 µg/mL	0.835
S. aureus DSM 20231 [3], first compound 0.0156 µg/mL, partner 1 µg/mL	0.903
S. aureus DSM 20231 [3], first compound 0.0312 µg/mL, partner 0.5 µg/mL	0.719
S. aureus DSM 20231 [3], first compound 0.0312 µg/mL, partner 1 µg/mL	0.746
S. aureus DSM 20231 [3], first compound 0.0625 µg/mL, partner 0.5 µg/mL	0.517
S. aureus DSM 20231 [3], first compound 0.0625 µg/mL, partner 1 µg/mL	0.64
S. aureus Newman [1], first compound 0.0156 µg/mL, partner 0.5 µg/mL	0.815
S. aureus Newman [1], first compound 0.0156 µg/mL, partner 1 µg/mL	0.882
S. aureus Newman [1], first compound 0.0156 µg/mL, partner 2 µg/mL	0.843
S. aureus Newman [1], first compound 0.0312 µg/mL, partner 0.5 µg/mL	0.752
S. aureus Newman [1], first compound 0.0312 µg/mL, partner 1 µg/mL	0.78
S. aureus Newman [1], first compound 0.0312 µg/mL, partner 2 µg/mL	0.723
S. aureus Newman [1], first compound 0.0625 µg/mL, partner 0.5 µg/mL	0.597
S. aureus Newman [1], first compound 0.0625 µg/mL, partner 1 µg/mL	0.671
S. aureus Newman [1], first compound 0.0625 µg/mL, partner 2 µg/mL	0.676
S. pneumoniae D39V [4], first compound 0.01 µg/mL, partner 0.15 µg/mL	≥ 1
S. pneumoniae D39V [4], first compound 0.01 µg/mL, partner 0.3 µg/mL	≥ 1
S. pneumoniae D39V [4], first compound 0.02 µg/mL, partner 0.15 µg/mL	≥ 1
S. pneumoniae D39V [4], first compound 0.02 µg/mL, partner 0.3 µg/mL	≥ 1
S. pneumoniae D39V [4], first compound 0.04 µg/mL, partner 0.15 µg/mL	0.994
S. pneumoniae D39V [4], first compound 0.04 µg/mL, partner 0.3 µg/mL	0.989

Conditions	Bliss interaction score
B. subtilis 168 [6]	0.0548
S. aureus DSM 20231 [7]	-0.0341
S. aureus Newman [5]	0.0583
S. pneumoniae D39V [8]	0.114

Cc1onc(-c2ccccc2)c1C(=O)N[C@@H]1C(=O)N2[C@@H]1SC(C)(C)[C@@H]2C(=O)O [Oxacillin] + CCN(CC)CCOC(=O)c1ccc(N)cc1 [Procaine]
fitness
Conditions	partner 85.5 µg/mL	partner 171 µg/mL	partner 342 µg/mL
B. subtilis 168 [2], first compound 0.002 µg/mL	0.938	0.932	0.894
B. subtilis 168 [2], first compound 0.004 µg/mL	0.966	0.913	0.911
B. subtilis 168 [2], first compound 0.008 µg/mL	0.963	0.916	0.867
S. aureus DSM 20231 [3], first compound 0.0156 µg/mL	0.782	0.916	0.852
S. aureus DSM 20231 [3], first compound 0.0312 µg/mL	0.64	0.738	0.712
S. aureus DSM 20231 [3], first compound 0.0625 µg/mL	0.443	0.513	0.514
S. aureus Newman [1], first compound 0.0312 µg/mL	0.686	–	–
S. pneumoniae D39V [4], first compound 0.01 µg/mL	≥ 1	≥ 1	0.998
S. pneumoniae D39V [4], first compound 0.02 µg/mL	0.933	0.932	0.925
S. pneumoniae D39V [4], first compound 0.04 µg/mL	–	–	0.497

fitness, B. subtilis 168 [2], one replicate
Conditions	first compound 0.075 µg/mL	first compound 0.15 µg/mL	first compound 0.3 µg/mL
partner 85.5 µg/mL	0.637	0.0445	0.056
partner 171 µg/mL	0.535	0.0452	0.0565
partner 342 µg/mL	0.577	0.041	0.0536

Conditions	Bliss interaction score
B. subtilis 168 [6]	0.0581
S. aureus DSM 20231 [7]	-0.0703
S. aureus Newman [5]	-0.0416
S. pneumoniae D39V [8]	0.0938
